From patent publication US11834453B2, “Substituted pyrimido[5,4-d]pyrimidines as HER2 inhibitors” (Array BioPharma Inc., priority 2020, dated 2023) come the findings set out here.

For series [1], the target named is ErbB2 insYVMA (HER2-YVMA, SEQ ID NO: 2) (Homo sapiens, UniProt P04626, INS775YVMA/P1170A). The series can be described thus: biochemical. The conditions noted are these: ErbB2 insYVMA enzyme assay; read-out: Assay 1 IC50.
A further series concerns the target ErbB2 WT (Homo sapiens (Human), UniProt P04626). The series can be described thus: ErbB enzyme assay (CisBio HTRF KinEASE-TK), Assay 2. Type of series: biochemical. The essentials: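 ErbB2 phosphorylates 250 nM biotin-TK substrate at 1 mM ATP in 25 mM HEPES pH 7.4, 10 mM MgCl2, 0.01% Triton X-100 and 2% DMSO, for 30 min at 22 °C. Product is detected by HTRF with Sa-XL665 and TK-Ab-Cryptate. Percent of control is set by DMSO-only wells and pre-quenched wells.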
In general terms: In TR-FRET formats the signal depends on donor and acceptor labels being close together.

In a further series the target is EGFR (Homo sapiens (Human), UniProt P00533). The series can be described thus: ErbB enzyme assay (CisBio HTRF KinEASE-TK), Assay 3. Format: biochemical. A digest of the protocol: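 Kinase + 250 nM biotin TK-substrate, 1 mM ATP, cpd (3-fold dil.), HEPES pH 7.4/10 mM MgCl2/0.01% Triton/2% DMSO; 30 min 22 °C. Quench w/ Sa-XL665 + TK-Ab-Cryptate, 1 h, HTRF. IC50 = 50 POC on 4PL fit.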

Series [2] concerns the target ErbB2 with Exon 20 YVMA insertion (HER2-YVMA) (Homo sapiens (Human), UniProt P04626, INS775YVMA). The series can be described thus: Cellular phosphorylation assay, constitutive ErbB2 phosphorylation (Y1196) in engineered NIH 3T3 cells, Assay 4. Type of series: cell-based. The essentials:
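Engineered NIH 3T3 cells expressing HER2-YVMA treated with compounds 1 h at 37 °C, then formaldehyde-fixed and methanol-permeabilized. pErbB2 Y1196 detected by in-cell infrared immunofluorescence, normalized to GAPDH. IC50 from the normalized curves.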

The target in a further series is EGFR wild type (EGFR WT) (Homo sapiens (Human), UniProt P00533). The series can be described thus: Cellular phosphorylation assay, EGF-stimulated EGFR phosphorylation in engineered NIH 3T3 cells, Phospho-EGFR DuoSet IC ELISA, Assay 5. Format: cell-based. A digest of the protocol: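 NIH 3T3 cells expressing EGFR WT (20,000/well, attached overnight) were exposed to serially diluted compound for 1 h at 37 °C, then stimulated with 100 ng/ml rEGF for 10 min. Phospho-EGFR in lysates measured by sandwich ELISA optical density; IC50 from curves.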

A further series addresses MDR1 (P-gp) (Homo sapiens (Human), UniProt P08183). The series can be described thus: MDR1 transfected MDCKII canine Mdr1 knockout permeability/efflux, Assay 7. To be noted: dog, MDCK-MDR1.
For a further series, the target named is BCRP (Homo sapiens (Human), UniProt Q9UNQ0). Nature of the series: BCRP transfected MDCKII canine Mdr1 knockout permeability/efflux, Assay 9. To be noted: dog.
The mark [3] stands for this setting: Assay 9 Pe Ratio, efflux ratio Papp(B-A)/Papp(A-B), BCRP transfected MDCKII canine Mdr1 knockout.

Bounds are passed on as bounds.

Chain of EGFR wild type (EGFR WT) (P00533 25-1210): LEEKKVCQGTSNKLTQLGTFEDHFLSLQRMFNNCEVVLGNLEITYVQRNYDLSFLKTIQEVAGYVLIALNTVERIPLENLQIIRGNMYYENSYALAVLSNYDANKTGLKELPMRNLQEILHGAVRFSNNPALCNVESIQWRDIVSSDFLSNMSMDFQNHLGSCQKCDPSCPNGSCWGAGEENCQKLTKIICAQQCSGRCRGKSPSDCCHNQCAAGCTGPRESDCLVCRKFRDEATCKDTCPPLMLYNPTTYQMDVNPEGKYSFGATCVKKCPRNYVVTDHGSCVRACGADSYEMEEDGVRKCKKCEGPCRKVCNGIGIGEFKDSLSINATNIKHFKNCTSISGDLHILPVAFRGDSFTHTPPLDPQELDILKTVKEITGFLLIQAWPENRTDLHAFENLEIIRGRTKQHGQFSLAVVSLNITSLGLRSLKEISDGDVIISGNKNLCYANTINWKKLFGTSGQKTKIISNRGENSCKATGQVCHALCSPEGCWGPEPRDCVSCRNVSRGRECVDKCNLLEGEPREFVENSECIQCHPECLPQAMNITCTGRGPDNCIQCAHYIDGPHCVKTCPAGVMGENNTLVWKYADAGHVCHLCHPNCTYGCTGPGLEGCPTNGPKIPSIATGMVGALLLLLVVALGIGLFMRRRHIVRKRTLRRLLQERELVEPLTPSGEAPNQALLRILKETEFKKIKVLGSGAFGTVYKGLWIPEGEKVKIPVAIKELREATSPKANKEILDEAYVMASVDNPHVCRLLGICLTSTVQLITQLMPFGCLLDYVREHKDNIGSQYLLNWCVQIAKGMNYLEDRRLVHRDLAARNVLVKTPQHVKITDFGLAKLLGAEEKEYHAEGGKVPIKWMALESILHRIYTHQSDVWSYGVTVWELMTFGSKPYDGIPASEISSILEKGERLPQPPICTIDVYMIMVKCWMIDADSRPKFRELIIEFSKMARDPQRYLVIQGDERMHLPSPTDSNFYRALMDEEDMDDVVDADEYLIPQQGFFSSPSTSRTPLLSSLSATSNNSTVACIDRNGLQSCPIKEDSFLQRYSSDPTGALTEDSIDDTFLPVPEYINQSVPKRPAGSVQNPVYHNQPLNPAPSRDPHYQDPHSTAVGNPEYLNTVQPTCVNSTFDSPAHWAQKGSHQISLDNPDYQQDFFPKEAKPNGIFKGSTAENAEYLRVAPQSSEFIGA
Chain of EGFR (P00533 25-1210): as above
Chain of MDR1 (P-gp) (P08183 whole entry): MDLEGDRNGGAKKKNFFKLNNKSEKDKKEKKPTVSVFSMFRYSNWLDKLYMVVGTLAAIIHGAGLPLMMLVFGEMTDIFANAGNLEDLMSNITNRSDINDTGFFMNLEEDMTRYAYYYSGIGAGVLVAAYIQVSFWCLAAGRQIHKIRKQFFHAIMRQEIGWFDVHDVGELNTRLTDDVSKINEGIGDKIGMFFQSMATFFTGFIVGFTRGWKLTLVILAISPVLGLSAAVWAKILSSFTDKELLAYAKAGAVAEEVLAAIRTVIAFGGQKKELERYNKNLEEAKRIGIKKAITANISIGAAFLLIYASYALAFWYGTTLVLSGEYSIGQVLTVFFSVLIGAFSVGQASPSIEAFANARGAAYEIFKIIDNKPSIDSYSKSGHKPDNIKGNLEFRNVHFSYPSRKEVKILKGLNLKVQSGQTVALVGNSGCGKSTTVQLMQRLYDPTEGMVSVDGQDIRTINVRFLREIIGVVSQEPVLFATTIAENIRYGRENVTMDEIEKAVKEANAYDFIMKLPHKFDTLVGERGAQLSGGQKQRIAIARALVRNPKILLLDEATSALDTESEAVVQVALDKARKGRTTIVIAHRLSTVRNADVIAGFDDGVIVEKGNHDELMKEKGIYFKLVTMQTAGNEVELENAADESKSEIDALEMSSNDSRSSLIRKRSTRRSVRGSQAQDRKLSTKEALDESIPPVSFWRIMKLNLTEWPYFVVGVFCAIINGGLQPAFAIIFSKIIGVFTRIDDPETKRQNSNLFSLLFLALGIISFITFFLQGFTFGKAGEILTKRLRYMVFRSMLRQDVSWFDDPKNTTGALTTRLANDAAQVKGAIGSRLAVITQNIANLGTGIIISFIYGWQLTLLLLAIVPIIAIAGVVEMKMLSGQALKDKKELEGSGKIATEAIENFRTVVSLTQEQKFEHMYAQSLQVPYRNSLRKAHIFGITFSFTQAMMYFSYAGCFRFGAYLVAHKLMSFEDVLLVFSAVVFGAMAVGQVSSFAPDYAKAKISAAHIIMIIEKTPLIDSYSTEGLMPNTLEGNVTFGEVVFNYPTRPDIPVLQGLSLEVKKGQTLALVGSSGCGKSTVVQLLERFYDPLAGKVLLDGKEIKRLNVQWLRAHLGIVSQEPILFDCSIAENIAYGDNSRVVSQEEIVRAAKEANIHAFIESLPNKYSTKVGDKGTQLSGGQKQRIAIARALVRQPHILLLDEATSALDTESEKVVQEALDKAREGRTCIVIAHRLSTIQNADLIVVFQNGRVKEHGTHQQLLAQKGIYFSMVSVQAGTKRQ
Chain of ErbB2 with Exon 20 YVMA insertion (HER2-YVMA) (P04626 other isoform, or with tags, fused parts or gaps ins YVMA behind 775): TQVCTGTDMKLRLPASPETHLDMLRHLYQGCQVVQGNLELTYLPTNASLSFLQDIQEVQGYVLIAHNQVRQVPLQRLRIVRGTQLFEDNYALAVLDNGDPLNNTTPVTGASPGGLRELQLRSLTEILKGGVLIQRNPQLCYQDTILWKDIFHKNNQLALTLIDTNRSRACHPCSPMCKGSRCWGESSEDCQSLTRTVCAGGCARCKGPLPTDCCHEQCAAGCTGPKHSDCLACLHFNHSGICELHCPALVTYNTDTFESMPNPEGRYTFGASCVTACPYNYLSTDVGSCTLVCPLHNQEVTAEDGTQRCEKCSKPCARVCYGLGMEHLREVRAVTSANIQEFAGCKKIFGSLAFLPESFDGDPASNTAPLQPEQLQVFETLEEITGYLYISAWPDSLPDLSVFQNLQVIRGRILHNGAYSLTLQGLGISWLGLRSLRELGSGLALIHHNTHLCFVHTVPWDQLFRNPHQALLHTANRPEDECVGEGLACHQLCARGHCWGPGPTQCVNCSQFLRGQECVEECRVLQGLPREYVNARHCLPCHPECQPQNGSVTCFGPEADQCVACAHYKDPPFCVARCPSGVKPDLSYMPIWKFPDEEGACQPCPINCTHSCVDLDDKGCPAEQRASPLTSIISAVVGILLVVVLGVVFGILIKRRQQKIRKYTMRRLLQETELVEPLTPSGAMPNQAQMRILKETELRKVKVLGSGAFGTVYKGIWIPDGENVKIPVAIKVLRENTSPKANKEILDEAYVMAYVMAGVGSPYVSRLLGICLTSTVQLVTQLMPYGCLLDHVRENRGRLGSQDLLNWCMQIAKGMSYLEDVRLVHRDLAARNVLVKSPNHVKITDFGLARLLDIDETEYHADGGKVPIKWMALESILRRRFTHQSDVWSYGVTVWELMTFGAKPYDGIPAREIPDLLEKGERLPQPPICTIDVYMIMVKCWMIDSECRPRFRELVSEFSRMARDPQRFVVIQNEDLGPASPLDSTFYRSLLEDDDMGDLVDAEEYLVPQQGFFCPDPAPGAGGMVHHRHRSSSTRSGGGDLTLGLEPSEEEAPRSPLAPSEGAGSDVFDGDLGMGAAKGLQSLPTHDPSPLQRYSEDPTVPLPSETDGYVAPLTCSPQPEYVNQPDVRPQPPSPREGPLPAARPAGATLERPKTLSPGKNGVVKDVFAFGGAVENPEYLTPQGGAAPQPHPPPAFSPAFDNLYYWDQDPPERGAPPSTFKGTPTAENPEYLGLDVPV

Take `COC[C@H](O)CN(C)c1ncc2ncnc(Nc3ccc(Oc4ccc5c(c4)ncn5C)c(C)c3)c2n1` (racemic) [Example 100, rac-(R)-1-methoxy-3-(methyl(8-((3-methyl-4-((1-methyl-1H-benzo[d]imidazol-5-yl)oxy)phenyl)amino)pyrimido[5,4-d]pyrimidin-2-yl)amino)propan-2-ol]: the half-inhibitory concentration (IC50) (in general, the midpoint of a concentration-inhibition curve) in series [1] is 0.0288 µM; on ErbB2 WT, 0.0318 µM; on EGFR it was 4.15 µM; in series [2], 0.0211 µM; at EGFR wild type (EGFR WT), at least 5 µM. Moreover, the efflux ratio (as a rule, a quotient of directional permeabilities that is used to spot active efflux) at 2 h, 1 μM is 1.5 at MDR1 (P-gp) and 18.2 on BCRP (setting [3]).
In the case of `Cc1cc(Nc2ncnc3cnc(N4CC[C@@](O)(C(F)F)C4)nc23)ccc1Oc1ccc2c(c1)ncn2C` (racemic) [Example 106, rac-(R)-3-(difluoromethyl)-1-(8-((3-methyl-4-((1-methyl-1H-benzo[d]imidazol-5-yl)oxy)phenyl)amino)pyrimido[5,4-d]pyrimidin-2-yl)pyrrolidin-3-ol], the half-maximal inhibitory concentration (IC50) is 0.0168 µM in series [1]; 0.0166 µM against ErbB2 WT; 2.84 µM against EGFR; 0.0184 µM in series [2]; at least 5 µM at EGFR wild type (EGFR WT). Besides, the efflux ratio at 2 h, 1 μM at MDR1 (P-gp) is 2.6; at BCRP (setting [3]), 24.3.
As to `Cc1cc(Nc2ncnc3cnc(N4CC[C@@]45CCOC5)nc23)ccc1Oc1ccc2c(c1)ncn2C` (single isomer, unassigned) [Example 93a], the IC50 is 0.017 µM in series [1]; 0.016 µM against ErbB2 WT; 1.46 µM on EGFR; 0.0206 µM in series [2]; at least 5 µM at EGFR wild type (EGFR WT). The efflux ratio at 2 h, 1 μM on MDR1 (P-gp) was found to be 1.3; on BCRP it was 1.9.
For the compound `Cn1cnc2cc(Oc3ccc(Nc4ncnc5cnc(N6CC[C@@H](CC#N)C6)nc45)cc3Cl)ccc21` [Example 134, (S)-2-(1-(8-((3-chloro-4-((1-methyl-1H-benzo[d]imidazol-5-yl)oxy)phenyl)amino)pyrimido[5,4-d]pyrimidin-2-yl)pyrrolidin-3-yl)acetonitrile], the IC50 in series [1] was 0.0551 µM; against EGFR, at least 10 µM; in series [2], 0.0085 µM; against EGFR wild type (EGFR WT), at least 5 µM. Also, the efflux ratio at 2 h, 1 μM on MDR1 (P-gp) came out at 1.8; at BCRP (setting [3]) it was 6.8.
In the case of `Cc1cc(Nc2ncnc3cnc(N4C[C@@H](C)[C@H](O)C4)nc23)ccc1Oc1ccc2c(c1)ncn2C` [Example 167, (3S,4R)-4-methyl-1-(8-((3-methyl-4-((1-methyl-1H-benzo[d]imidazol-5-yl)oxy)phenyl)amino)pyrimido[5,4-d]pyrimidin-2-yl)pyrrolidin-3-ol], the IC50 in series [1] is 0.0177 µM; against ErbB2 WT it was 0.0346 µM; against EGFR it was 9.05 µM; in series [2], 0.0242 µM; against EGFR wild type (EGFR WT), at least 5 µM. Further, the efflux ratio at 2 h, 1 μM on MDR1 (P-gp) worked out at 2.8.
Regarding `Cc1cc(Nc2ncnc3cnc(N4CC[C@@H](O)C4)nc23)ccc1Oc1ccc2c(c1)ncn2C` [Example 169, (R)-1-(8-((3-methyl-4-((1-methyl-1H-benzo[d]imidazol-5-yl)oxy)phenyl)amino)pyrimido[5,4-d]pyrimidin-2-yl)pyrrolidin-3-ol], the IC50 in series [1] is 0.0085 µM; against ErbB2 WT it was 0.0112 µM; on EGFR, 1.63 µM; in series [2], 0.0047 µM; against EGFR wild type (EGFR WT), at least 5 µM. Further, the efflux ratio at 2 h, 1 μM at MDR1 (P-gp) is 3.6.
Turning to `Cc1cc(Nc2ncnc3cnc(N4CC[C@H](O)C4)nc23)ccc1Oc1ccc2c(c1)ncn2C` [Example 174, (S)-1-(8-((3-methyl-4-((1-methyl-1H-benzo[d]imidazol-5-yl)oxy)phenyl)amino)pyrimido[5,4-d]pyrimidin-2-yl)pyrrolidin-3-ol], the IC50 in series [1] is 0.0115 µM; on ErbB2 WT it was 0.0314 µM; against EGFR, 2.77 µM; in series [2] it was 0.008 µM; on EGFR wild type (EGFR WT), at least 5 µM. On MDR1 (P-gp), the efflux ratio at 2 h, 1 μM is 3.1.
With `Cc1cc(Nc2ncnc3cnc(N4CCC(CC#N)C4)nc23)ccc1Oc1ccc2c(c1)ncn2C` (stereo not drawn) [Example 192, 2-(1-(8-((3-methyl-4-((1-methyl-1H-benzo[d]imidazol-5-yl)oxy)phenyl)amino)pyrimido[5,4-d]pyrimidin-2-yl)pyrrolidin-3-yl)acetonitrile], the IC50 was 0.0191 µM in series [1]; 0.0448 µM at ErbB2 WT; at least 10 µM on EGFR; 0.0131 µM in series [2]; at least 5 µM against EGFR wild type (EGFR WT). The efflux ratio at 2 h, 1 μM on MDR1 (P-gp) came to 1.6.
In the case of `Cc1cc(Nc2ncnc3cnc(N4CCNC(=O)C4)nc23)ccc1Oc1ccc2c(c1)ncn2C` [Example 198, 4-(8-((3-methyl-4-((1-methyl-1H-benzo[d]imidazol-5-yl)oxy)phenyl)amino)pyrimido[5,4-d]pyrimidin-2-yl)piperazin-2-one], the IC50 was 0.02 µM in series [1]; 0.0219 µM on ErbB2 WT; 3.3 µM on EGFR; 0.0376 µM in series [2]; at least 5 µM on EGFR wild type (EGFR WT). In addition, the efflux ratio at 2 h, 1 μM at MDR1 (P-gp) amounted to 10.7.
As for `Cc1cc(Nc2ncnc3cnc(N4CC5(CC(O)C5)C4)nc23)ccc1Oc1ccc2c(c1)ncn2C` [Example 213, 2-(8-((3-methyl-4-((1-methyl-1H-benzo[d]imidazol-5-yl)oxy)phenyl)amino)pyrimido[5,4-d]pyrimidin-2-yl)-2-azaspiro[3.3]heptan-6-ol], the half-inhibitory concentration (IC50) in series [1] was 0.0197 µM; on ErbB2 WT, 0.0339 µM; against EGFR, at least 10 µM; in series [2] it was 0.0341 µM; at EGFR wild type (EGFR WT), at least 5 µM. Besides, the efflux ratio at 2 h, 1 μM on MDR1 (P-gp) was 2.4.
For `Cc1cc(Nc2ncnc3cnc(N[C@@H]4CNCC4(F)F)nc23)ccc1Oc1ccc2c(c1)ncn2C` [Example 297], the IC50 in series [1] was 0.0176 µM; against ErbB2 WT it was 0.04 µM; on EGFR, 3.32 µM; in series [2] it was 0.0294 µM; against EGFR wild type (EGFR WT) it was at least 5 µM. Besides, the efflux ratio at 2 h, 1 μM on MDR1 (P-gp) came to 3.2.
Take `Cc1cc(Nc2ncnc3cnc(NCC4(O)COC4)nc23)ccc1Oc1ccc2c(c1)ncn2C` [Example 319]: the IC50 in series [1] is 0.0167 µM; on ErbB2 WT, 0.0045 µM; on EGFR, 0.87 µM; in series [2] it was 0.0263 µM; against EGFR wild type (EGFR WT) it was at least 5 µM. For the same compound, the efflux ratio at 2 h, 1 μM at MDR1 (P-gp) turned out to be 10.6.
As for `CN(c1ncc2ncnc(Nc3ccc(Oc4ccn5ncnc5c4)c(Cl)c3)c2n1)[C@H]1CCCOC1` [Example 360], the 50% inhibitory concentration (IC50) in series [1] is 0.0249 µM; on ErbB2 WT, 0.0255 µM; against EGFR, at least 10 µM; in series [2] it was 0.0298 µM; at EGFR wild type (EGFR WT), at least 5 µM. In addition, the efflux ratio at 2 h, 1 μM at MDR1 (P-gp) stood at 1.3.
Regarding `CC1(O)CCN(c2ncc3ncnc(Nc4ccc(Oc5ccn6ncnc6c5)c(Cl)c4)c3n2)CC1` [Example 435], the IC50 in series [1] is 0.0118 µM; against ErbB2 WT it was 0.0328 µM; on EGFR it was 4.91 µM; in series [2], 0.0347 µM; on EGFR wild type (EGFR WT), at least 5 µM. Besides, the efflux ratio at 2 h, 1 μM on MDR1 (P-gp) stood at 1.2.
In the case of `Cc1cc(Nc2ncnc3cnc(N4CC[C@H](CC#N)C4)nc23)ccc1Oc1ccc2c(c1)ncn2C` [Example 469], the IC50 was 0.0191 µM in series [1]; 0.0448 µM on ErbB2 WT; at least 10 µM against EGFR; 0.0131 µM in series [2]; at least 5 µM against EGFR wild type (EGFR WT). Besides, the efflux ratio at 2 h, 1 μM on MDR1 (P-gp) is 1.6.
Turning to `Cc1cc(Nc2ncnc3cnc(N4C[C@@H]5C[C@H]4C[C@@H]5O)nc23)ccc1Oc1ccc2c(c1)ncn2C` [Example 470], the IC50 was 0.0383 µM in series [1]; 0.0523 µM against ErbB2 WT; 6.84 µM against EGFR; 0.0243 µM in series [2]; at least 5 µM at EGFR wild type (EGFR WT). Further, on MDR1 (P-gp), the efflux ratio at 2 h, 1 μM turned out to be 2.5.
For `Cn1cnc2cc(Oc3ccc(Nc4ncnc5cnc(N6CCN(C7COC7)CC6)nc45)cc3Cl)ccc21` [Example 485], the IC50 in series [1] was 0.0217 µM; on ErbB2 WT, 0.0772 µM; on EGFR, at least 10 µM; in series [2], 0.0111 µM; against EGFR wild type (EGFR WT), at least 5 µM. The efflux ratio at 2 h, 1 μM at MDR1 (P-gp) worked out at 1.3.
